The text below walks through data of article PMC12071706, “Impact of SARS-CoV-2 RBM Mutations N501Y and E484K on ACE2 Binding: A Combined Computational and Experimental Study” (International Journal of Molecular Sciences, 2025).

For orientation: Kd means the free concentration of one partner at which half of the binding sites on the other are occupied at equilibrium, for simple one-to-one binding.

The target in the test is T1, human ACE2 protein (hACE2) (Homo sapiens, UniProt Q9BYF1).
T1 construct: His; purchased AbClonal (Woburn, MA, USA) RP01277; host or cells: HEK293
The test is described as follows: biochemical. The format is binding.

T1 sequence (Q9BYF1 18-740): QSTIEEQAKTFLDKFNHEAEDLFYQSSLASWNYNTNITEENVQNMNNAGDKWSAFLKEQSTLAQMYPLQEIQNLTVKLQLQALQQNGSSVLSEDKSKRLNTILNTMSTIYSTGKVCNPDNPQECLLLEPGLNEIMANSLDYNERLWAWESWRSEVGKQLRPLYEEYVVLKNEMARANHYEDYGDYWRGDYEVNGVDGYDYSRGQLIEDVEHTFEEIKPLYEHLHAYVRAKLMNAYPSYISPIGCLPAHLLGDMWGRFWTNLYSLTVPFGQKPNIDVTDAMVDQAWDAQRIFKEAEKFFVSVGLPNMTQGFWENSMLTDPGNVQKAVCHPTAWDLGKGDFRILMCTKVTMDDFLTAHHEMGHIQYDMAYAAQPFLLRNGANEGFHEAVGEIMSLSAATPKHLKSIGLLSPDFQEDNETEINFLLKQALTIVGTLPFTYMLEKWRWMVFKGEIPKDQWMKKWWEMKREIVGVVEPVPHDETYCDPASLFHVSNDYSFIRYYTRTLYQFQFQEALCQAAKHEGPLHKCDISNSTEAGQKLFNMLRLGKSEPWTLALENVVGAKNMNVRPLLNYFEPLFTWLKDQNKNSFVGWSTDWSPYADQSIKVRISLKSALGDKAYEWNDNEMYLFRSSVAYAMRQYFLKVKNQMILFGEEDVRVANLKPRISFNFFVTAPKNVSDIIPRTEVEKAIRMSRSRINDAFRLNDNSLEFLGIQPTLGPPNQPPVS

In turn, `CC(=O)NCC(=O)N[C@H](C(=O)N[C@@H](CCCCN)C(=O)NCC(=O)N[C@@H](Cc1ccccc1)C(=O)N[C@@H](CC(N)=O)C(=O)N[C@@H](CS)C(=O)N[C@@H](Cc1ccc(O)cc1)C(=O)N[C@@H](Cc1ccccc1)C(=O)N1CCC[C@H]1C(=O)N[C@@H](CC(C)C)C(=O)N[C@@H](CCC(N)=O)C(=O)N[C@@H](CO)C(=O)N[C@@H](Cc1ccc(O)cc1)C(=O)NCC(=O)N[C@@H](Cc1ccccc1)C(=O)N[C@@H](CCC(N)=O)C(=O)N1CCC[C@H]1C(=O)N[C@H](C(=O)N[C@@H](CC(N)=O)C(=O)NCC(N)=O)[C@@H](C)O)C(C)C` [Zeta] displayed a dissociation constant (Kd) of 810 ± 60 nM. Further, under “pH 7.4”, the “N (stoichiometry)” value turned out to be 0.76 ± 0.03; the “fold increase in binding affinity” value is on record as 5.8 fold; the “thermodynamic signature (enthalpic vs entropic contribution)” value was “the enthalpic and entropic contributions are of comparable magnitude within the experimental error”; the ΔGITC is -8.31 ± 0.07 kcal/mol. For the setting “pH 7.4”, the ΔHITC was -4.26 ± 0.24 kcal/mol and the “−TΔSITC” value is -4.06 ± 0.25 kcal/mol.

`CC(=O)NCC(=O)N[C@H](C(=O)N[C@@H](CCCCN)C(=O)NCC(=O)N[C@@H](Cc1ccccc1)C(=O)N[C@@H](CC(N)=O)C(=O)N[C@@H](CS)C(=O)N[C@@H](Cc1ccc(O)cc1)C(=O)N[C@@H](Cc1ccccc1)C(=O)N1CCC[C@H]1C(=O)N[C@@H](CC(C)C)C(=O)N[C@@H](CCC(N)=O)C(=O)N[C@@H](CO)C(=O)N[C@@H](Cc1ccc(O)cc1)C(=O)NCC(=O)N[C@@H](Cc1ccccc1)C(=O)N[C@@H](CCC(N)=O)C(=O)N1CCC[C@H]1C(=O)N[C@H](C(=O)N[C@@H](Cc1ccc(O)cc1)C(=O)NCC(N)=O)[C@@H](C)O)C(C)C` [Beta/Gamma] had a Kd of 310 ± 80 nM.
